Results published in patent US10226460B2, “Pharmaceutically acceptable salts of pirlindole enantiomers for use in medicine” (TECNIMEDE SOCIEDADE TECNICO-MEDICINAL S.A., priority 2014, dated 2019).

Assay: Solubility test, classical saturation shake-flask method in 0.1N HCl
Type: physicochemical
Protocol: The Solubility test performed for showing the present invention's advantages is well known in the state of the art and is based on the “Classical saturation shake-flask method”, which comprises: Agitation at 37° C. during 15 h of supersaturated solution of the solid in HCl (aq) 0.1N, followed by filtration, dilution with water and quantification by UV measurement at 267 nm wavelength.

## Cc1ccc2c(c1)c1c3n2CCNC3CCC1.Cl (racemic) [(rac)-pirlindole•HCl, 2,3,3a,4,5,6-hexahydro-1H-8-methyl-pyrazine [3,2,1-j,k]carbazole]
  Solubility category in 0.1 N HCl: slightly soluble
